# Assay results reported in patent US20230085307A1, “PYRIDAZINONE COMPOUND AND HERBICIDE” (NISSAN CHEMICAL CORPORATION, priority 2019, published 2023).
# Legend:
# barnyard grass [1] = assay: Test Example 3: herbicidal effect by foliage application, Wagner pot (Table 18, symbol H); format: in vivo, barnyard grass (Echinochloa crus-galli); details: amount of applied herbicide 320 g/ha
# In short: (§1)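 Plants were sown in alluvial soil held under 0.1–0.5 cm standing water and grown 14 days in a greenhouse at 25–30 °C. An emulsifiable formulation, water-diluted to the set dose, was then sprayed onto the foliage, and effects were scored three weeks later using previously defined criteria.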
# southern crabgrass [2] = assay: Test Example 4: herbicidal effect by soil treatment (Table 19, symbol F); format: in vivo, southern crabgrass (Digitaria ciliaris); details: amount of applied herbicide 320 g/ha
# In short: (§2)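 Pre-emergence style soil spray: seeds under ~1.5 cm sterilized diluvial soil received a uniform coat of emulsion diluted to the predetermined herbicide amount. Greenhouse 25–30° C; readout at week three on previously defined criteria.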
# lambsquarters [3] = assay: Test Example 5: herbicidal effect by foliage application, plastic box (Table 20, symbol O); format: in vivo, lambsquarters (Chenopodium album); details: foliage application, 320 g/ha, evaluated three weeks after application
# In short: (§3)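 Plants were sown into sterilized diluvial soil under about 1.5 cm cover and kept in a greenhouse at 25° C. to 30° C. Fourteen days on, foliage received an even spray of the diluted emulsion. Herbicidal or crop effect was judged three weeks afterwards.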
# chickweed [4] = assay: Test Example 5: herbicidal effect by foliage application, plastic box (Table 20, symbol P); format: in vivo, common chickweed (Stellaria media); details: foliage application, 320 g/ha, evaluated three weeks after application
# In short: as §3
# Italian ryegrass [5] = assay: Test Example 4: herbicidal effect by soil treatment (Table 19, symbol K); format: in vivo, Italian ryegrass (Lolium multiflorum); details: amount of applied herbicide 320 g/ha
# In short: as §2
# lambsquarters [6] = assay: Test Example 4: herbicidal effect by soil treatment (Table 19, symbol O); format: in vivo, lambsquarters (Chenopodium album); details: amount of applied herbicide 320 g/ha
# In short: as §2
# green foxtail [7] = assay: Test Example 4: herbicidal effect by soil treatment (Table 19, symbol G); format: in vivo, green foxtail (Setaria viridis); details: amount of applied herbicide 320 g/ha
# In short: as §2
# velvetleaf [8] = assay: Test Example 4: herbicidal effect by soil treatment (Table 19, symbol M); format: in vivo, velvetleaf (Abutilon theophrasti); details: amount of applied herbicide 320 g/ha
# In short: as §2
# blackgrass [9] = assay: Test Example 4: herbicidal effect by soil treatment (Table 19, symbol J); format: in vivo, blackgrass (Alopecurus myosuroides); details: amount of applied herbicide 320 g/ha
# In short: as §2
# late watergrass = assay: Test Example 1: herbicidal activity, application before weed generation under submerged conditions (Table 16, symbol A); format: in vivo, late watergrass (Echinochloa oryzicola); details: 320 g/ha applied herbicide
# In short: (§4)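 Submerged Wagner pots (alluvial soil, 4 cm water) sown with weed seeds and planted with 2.5-leaf rice seedlings; emulsifiable concentrate diluted in water applied to water surface on sowing day. Held in greenhouse at 25-30 °C; injury scored 0-5 by herbicidal rate after three weeks.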
# chickweed [10] = assay: Test Example 4: herbicidal effect by soil treatment (Table 19, symbol P); format: in vivo, common chickweed (Stellaria media); details: amount of applied herbicide 320 g/ha
# In short: as §2
# Chinese sprangletop = assay: Test Example 3: herbicidal effect by foliage application, Wagner pot (Table 18, symbol D); format: in vivo, chinese sprangletop (Leptochloa chinensis); details: amount of applied herbicide 320 g/ha
# In short: as §1
# wild oat [11] = assay: Test Example 5: herbicidal effect by foliage application, plastic box (Table 20, symbol I); format: in vivo, wild oat (Avena fatua); details: foliage application, 320 g/ha, evaluated three weeks after application
# In short: as §3
# redroot pigweed [12] = assay: Test Example 5: herbicidal effect by foliage application, plastic box (Table 20, symbol N); format: in vivo, redroot pigweed (Amaranthus retroflexus); details: foliage application, 320 g/ha, evaluated three weeks after application
# In short: as §3
# rice flat sedge = assay: Test Example 3: herbicidal effect by foliage application, Wagner pot (Table 18, symbol E); format: in vivo, rice flat sedge (Cyperus iria); details: amount of applied herbicide 320 g/ha
# In short: as §1
# barnyard grass [13] = assay: Test Example 5: herbicidal effect by foliage application, plastic box (Table 20, symbol H); format: in vivo, barnyard grass (Echinochloa crus-galli); details: foliage application, 320 g/ha, evaluated three weeks after application
# In short: as §3
# Japanese bulrush = assay: Test Example 1: herbicidal activity, application before weed generation under submerged conditions (Table 16, symbol B); format: in vivo, Japanese bulrush (Schoenoplectus juncoides); details: 320 g/ha applied herbicide
# In short: as §4
# blackgrass [14] = assay: Test Example 5: herbicidal effect by foliage application, plastic box (Table 20, symbol J); format: in vivo, blackgrass (Alopecurus myosuroides); details: foliage application, 320 g/ha, evaluated three weeks after application
# In short: as §3
# southern crabgrass [15] = assay: Test Example 5: herbicidal effect by foliage application, plastic box (Table 20, symbol F); format: in vivo, southern crabgrass (Digitaria ciliaris); details: foliage application, 320 g/ha, evaluated three weeks after application
# In short: as §3
# oval-leafed pondweed = assay: Test Example 1: herbicidal activity, application before weed generation under submerged conditions (Table 16, symbol C); format: in vivo, oval-leafed pondweed (Monochoria vaginalis); details: 320 g/ha applied herbicide
# In short: as §4
# windgrass [16] = assay: Test Example 4: herbicidal effect by soil treatment (Table 19, symbol L); format: in vivo, windgrass (Apera spica-venti); details: amount of applied herbicide 320 g/ha
# In short: as §2
# green foxtail [17] = assay: Test Example 5: herbicidal effect by foliage application, plastic box (Table 20, symbol G); format: in vivo, green foxtail (Setaria viridis); details: foliage application, 320 g/ha, evaluated three weeks after application
# In short: as §3
# wild oat [18] = assay: Test Example 4: herbicidal effect by soil treatment (Table 19, symbol I); format: in vivo, wild oat (Avena fatua); details: amount of applied herbicide 320 g/ha
# In short: as §2
# redroot pigweed [19] = assay: Test Example 4: herbicidal effect by soil treatment (Table 19, symbol N); format: in vivo, redroot pigweed (Amaranthus retroflexus); details: amount of applied herbicide 320 g/ha
# In short: as §2
# Italian ryegrass [20] = assay: Test Example 5: herbicidal effect by foliage application, plastic box (Table 20, symbol K); format: in vivo, Italian ryegrass (Lolium multiflorum); details: foliage application, 320 g/ha, evaluated three weeks after application
# In short: as §3
# velvetleaf [21] = assay: Test Example 5: herbicidal effect by foliage application, plastic box (Table 20, symbol M); format: in vivo, velvetleaf (Abutilon theophrasti); details: foliage application, 320 g/ha, evaluated three weeks after application
# In short: as §3
# persian speedwell [22] = assay: Test Example 4: herbicidal effect by soil treatment (Table 19, symbol R); format: in vivo, Persian speedwell (Veronica persica); details: amount of applied herbicide 320 g/ha
# In short: as §2
# persian speedwell [23] = assay: Test Example 5: herbicidal effect by foliage application, plastic box (Table 20, symbol R); format: in vivo, Persian speedwell (Veronica persica); details: foliage application, 320 g/ha, evaluated three weeks after application
# In short: as §3
# barnyard grass [24] = assay: Test Example 4: herbicidal effect by soil treatment (Table 19, symbol H); format: in vivo, barnyard grass (Echinochloa crus-galli); details: amount of applied herbicide 320 g/ha
# In short: as §2
# windgrass [25] = assay: Test Example 5: herbicidal effect by foliage application, plastic box (Table 20, symbol L); format: in vivo, windgrass (Apera spica-venti); details: foliage application, 320 g/ha, evaluated three weeks after application
# In short: as §3
Compound,herbicidal effect on H: barnyard grass (barnyard grass [1]),herbicidal effect on F: southern crabgrass (southern crabgrass [2]),herbicidal effect on O: lambsquarters (criteria 0-5) (lambsquarters [3]),herbicidal effect on P: chickweed (criteria 0-5) (chickweed [4]),herbicidal effect on K: Italian ryegrass (Italian ryegrass [5]),herbicidal effect on O: lambsquarters (lambsquarters [6]),herbicidal effect on G: green foxtail (green foxtail [7]),herbicidal effect on M: velvetleaf (velvetleaf [8]),herbicidal effect on J: blackgrass (blackgrass [9]),Herbicidal effect on A: late watergrass (grade 0-5) (late watergrass),herbicidal effect on P: chickweed (chickweed [10]),herbicidal effect on D: Chinese sprangletop (Chinese sprangletop),herbicidal effect on I: wild oat (criteria 0-5) (wild oat [11]),herbicidal effect on N: redroot pigweed (criteria 0-5) (redroot pigweed [12]),herbicidal effect on E: rice flat sedge (rice flat sedge),herbicidal effect on H: barnyard grass (criteria 0-5) (barnyard grass [13]),Herbicidal effect on B: Japanese bulrush (grade 0-5) (Japanese bulrush),herbicidal effect on J: blackgrass (criteria 0-5) (blackgrass [14]),herbicidal effect on F: southern crabgrass (criteria 0-5) (southern crabgrass [15]),Herbicidal effect on C: oval-leafed pondweed (grade 0-5) (oval-leafed pondweed),other results
CCCC(=O)Oc1c(C)nn(C)c(=O)c1-c1c(-c2ccccc2C(F)(F)F)sc2ccc(F)cc12 [2-230],4 (Herbicidal rate of 70% or more and less than 90%),0 (Herbicidal rate of 5% or less (almost no effect)),4 (Herbicidal rate of 70% or more and less than 90%),5 (Herbicidal rate of 90% or more (almost completely withered)),2 (Herbicidal rate of 20% or more and less than 40%),0 (Herbicidal rate of 5% or less (almost no effect)),0 (Herbicidal rate of 5% or less (almost no effect)),0 (Herbicidal rate of 5% or less (almost no effect)),0 (Herbicidal rate of 5% or less (almost no effect)),3 (Herbicidal rate of 40% or more and less than 70%),3 (Herbicidal rate of 40% or more and less than 70%),5 (Herbicidal rate of 90% or more (almost completely withered)),0 (Herbicidal rate of 5% or less (almost no effect)),5 (Herbicidal rate of 90% or more (almost completely withered)),5 (Herbicidal rate of 90% or more (almost completely withered)),2 (Herbicidal rate of 20% or more and less than 40%),0 (Herbicidal rate of 5% or less (almost no effect)),0 (Herbicidal rate of 5% or less (almost no effect)),0 (Herbicidal rate of 5% or less (almost no effect)),0 (Herbicidal rate of 5% or less (almost no effect)),herbicidal effect on L: windgrass (windgrass [16]): 0 (Herbicidal rate of 5% or less (almost no effect)); herbicidal effect on G: green foxtail (criteria 0-5) (green foxtail [17]): 3 (Herbicidal rate of 40% or more and less than 70%); herbicidal effect on I: wild oat (wild oat [18]): 0 (Herbicidal rate of 5% or less (almost no effect)); herbicidal effect on N: redroot pigweed (redroot pigweed [19]): 0 (Herbicidal rate of 5% or less (almost no effect)); herbicidal effect on K: Italian ryegrass (criteria 0-5) (Italian ryegrass [20]): 3 (Herbicidal rate of 40% or more and less than 70%); herbicidal effect on M: velvetleaf (criteria 0-5) (velvetleaf [21]): 5 (Herbicidal rate of 90% or more (almost completely withered)); herbicidal effect on R: persian speedwell (persian speedwell [22]): 0 (Herbicidal rate of 5% or less (almost no effect)); herbicidal effect on R: persian speedwell (criteria 0-5) (persian speedwell [23]): 5 (Herbicidal rate of 90% or more (almost completely withered)); herbicidal effect on H: barnyard grass (barnyard grass [24]): 0 (Herbicidal rate of 5% or less (almost no effect)); herbicidal effect on L: windgrass (criteria 0-5) (windgrass [25]): 3 (Herbicidal rate of 40% or more and less than 70%)
Cc1nn(C)c(=O)c(-c2c(-c3cccc(OC(F)(F)F)c3)sc3ccc(F)cc23)c1O [2-236],4 (Herbicidal rate of 70% or more and less than 90%),0 (Herbicidal rate of 5% or less (almost no effect)),2 (Herbicidal rate of 20% or more and less than 40%),5 (Herbicidal rate of 90% or more (almost completely withered)),0 (Herbicidal rate of 5% or less (almost no effect)),1 (Herbicidal rate of 5% or more and less than 20%),0 (Herbicidal rate of 5% or less (almost no effect)),0 (Herbicidal rate of 5% or less (almost no effect)),0 (Herbicidal rate of 5% or less (almost no effect)),3 (Herbicidal rate of 40% or more and less than 70%),0 (Herbicidal rate of 5% or less (almost no effect)),3 (Herbicidal rate of 40% or more and less than 70%),0 (Herbicidal rate of 5% or less (almost no effect)),5 (Herbicidal rate of 90% or more (almost completely withered)),5 (Herbicidal rate of 90% or more (almost completely withered)),0 (Herbicidal rate of 5% or less (almost no effect)),3 (Herbicidal rate of 40% or more and less than 70%),0 (Herbicidal rate of 5% or less (almost no effect)),0 (Herbicidal rate of 5% or less (almost no effect)),2 (Herbicidal rate of 20% or more and less than 40%),herbicidal effect on L: windgrass (windgrass [16]): 0 (Herbicidal rate of 5% or less (almost no effect)); herbicidal effect on G: green foxtail (criteria 0-5) (green foxtail [17]): 3 (Herbicidal rate of 40% or more and less than 70%); herbicidal effect on I: wild oat (wild oat [18]): 0 (Herbicidal rate of 5% or less (almost no effect)); herbicidal effect on N: redroot pigweed (redroot pigweed [19]): 2 (Herbicidal rate of 20% or more and less than 40%); herbicidal effect on K: Italian ryegrass (criteria 0-5) (Italian ryegrass [20]): 0 (Herbicidal rate of 5% or less (almost no effect)); herbicidal effect on M: velvetleaf (criteria 0-5) (velvetleaf [21]): 1 (Herbicidal rate of 5% or more and less than 20%); herbicidal effect on R: persian speedwell (persian speedwell [22]): 0 (Herbicidal rate of 5% or less (almost no effect)); herbicidal effect on R: persian speedwell (criteria 0-5) (persian speedwell [23]): 3 (Herbicidal rate of 40% or more and less than 70%); herbicidal effect on H: barnyard grass (barnyard grass [24]): 0 (Herbicidal rate of 5% or less (almost no effect)); herbicidal effect on L: windgrass (criteria 0-5) (windgrass [25]): 1 (Herbicidal rate of 5% or more and less than 20%)
